We go through 28 compounds from patent US11274092B2, “Potassium channel inhibitors” (ACESION PHARMA ApS, priority 2016, dated 2022).

The target in the experiment is T1, human SK3 channel (hKCa2.3) (Homo sapiens, UniProt Q9UGI6).
T1 construct: expressed in transfected cells
As to the kind of experiment: Automated whole cell patch-clamp (QPatch 16 HT), inhibition of SK3 current. The following applies: HEK-293 cells stably expressing hKCa2.3; symmetrical K+ solutions, free calcium 400 nM; effects normalized to N-methyl bicuculline. The format is cell-based. On the procedure:
Automated whole cell patch-clamp recordings were performed using a QPatch 16 HT system and single-hole Qplates (Biolin Scientific, Sophion, Denmark) on HEK-293 cells stably expressing the human SK3 channel (hKCa2.3). Cells were cultured and prepared for experiments using normal cell culturing procedures. A total of 4-5 million cells were used per experiment. The Qpatch automatically generates giga sealing, whole-cell formation, compound application and recording of current. hKCa2.3 currents were recorded in symmetrical K^+ solutions, with an intracellular solution consisting of in mM: KCl 108; KOH/EGTA (ethylene glycol-bis(2-aminoethylether)-N,N,N′,N′-tetraacetic acid) 31.25/10; CaCl2) 8.1; MgCl2 1.2; HEPES (2-[4-(2-hydroxyethyl)piperazin-1-yl]ethanesulfonic acid) 10; KOH 15, pH adjusted to pH=7.2 with HCl. The free calcium concentration was calculated to 400 nM. The extracellular solution consisted of in mM: KCl 150; CaCl2) 0.1; MgCl2 3; HEPES 10; Glucose 10, pH=7.4 with KOH. The cells were held at 0 mV and hKCa2.3 currents were elicited by a linear voltage ramp from […] (200 ms in duration) applied every 5th second. The compound application protocol consisted of 12 recording periods lasting from 50-200 s: 1) Baseline recordings in extracellular solution; 2) Application of the positive control N-methyl bicuculline (100 μM), which is characterized by full efficacy, fast on- and off-rate; 3-4) Wash-out; 5-9) Increasing concentrations of test compound to establish an IC50 value; 10-11) Wash-out; 12) positive control with compound NS8593 (N-[(1R)-1,2,3,4-tetrahydro-1-naphthalenyl]-1H-benzimidazol-2-amine) (1 μM). Data were sampled at 10 kHz, 4th order Bessel filter, cut-off frequency 3 kHz. Currents were compensated for run-down. Potency was quantified as the concentration needed to inhibit half of the SK channel activity and reported as an IC50 value. All effects of compounds of the present invention as tested were normalized to the observed inhibitory effect of N-methyl bicuculline.
As for `CCNC(=O)OCCNC(=O)CC(Nc1nc2ccccc2[nH]1)c1cccc(C(F)(F)F)c1` (stereo not shown) [Example 63, 2-{3-[(1H-1,3-benzodiazol-2-yl)amino]-3-[3-(trifluoromethyl)phenyl]propanamido}ethyl N-ethylcarbamate], the IC50 was under 10 µM.
Next, `CN(C)C(=O)CNC(=O)CC(Nc1nc2ccccc2[nH]1)c1cccc(C(F)(F)F)c1` (stereo not shown) [Example 22, 3-[(1H-1,3-benzodiazol-2-yl)amino]-N-[(dimethylcarbamoyl)methyl]-3-[3-(trifluoromethyl)phenyl]propanamide]: under 10 µM; `CN(CC#N)C(=O)CC(Nc1nc2c(CCO)cccc2[nH]1)c1cccc(C(F)(F)F)c1` (stereo not shown) [Example 51, N-(cyanomethyl)-3-{[4-(2-hydroxyethyl)-1H-1,3-benzodiazol-2-yl]amino}-N-methyl-3-[3-(trifluoromethyl)phenyl]propanamide]: 10 to 100 µM.
Next, `O=C(CC(Nc1nc2ccccc2[nH]1)c1cccc(C(F)(F)F)c1)NCc1cncnc1` (stereo not shown) [Example 78, 3-[(1H-1,3-benzodiazol-2-yl)amino]-N-(pyrimidin-5-ylmethyl)-3-[3-(trifluoromethyl)phenyl]propanamide]: under 10 µM; `CC(C)(O)CNC(=O)CC(Nc1nc2ccccc2[nH]1)c1cccc(C(F)(F)F)c1` (single isomer, unassigned; (-)) [Example 4a, (−) 3-[(1H-1,3-benzodiazol-2-yl)amino]-N-(2-hydroxy-2-methylpropyl)-3-[3-(trifluoromethyl)phenyl]propanamide]: 10 to 100 µM; `COCCNC(=O)CC(Nc1nc2c(C)c(F)ccc2[nH]1)c1cccc(C(F)(F)F)c1` (stereo not shown) [Example 96, 3-[(5-fluoro-4-methyl-1H-1,3-benzodiazol-2-yl)amino]-N-(2-methoxyethyl)-3-[3-(trifluoromethyl)phenyl]propanamide]: 10 to 100 µM.
In the case of `CN(CCCO)C(=O)CC(Nc1nc2ccccc2[nH]1)c1cccc(C(F)(F)F)c1` (single isomer, unassigned; (-)) [Example 17a, (−) 3-[(1H-1,3-benzodiazol-2-yl)amino]-N-(3-hydroxypropyl)-N-methyl-3-[3-(trifluoromethyl)phenyl]propanamide], the IC50 is under 10 µM.
Turning to `O=C(C(Nc1nc2ccccc2[nH]1)c1cccc(C(F)(F)F)c1)N1CCCCC1` (stereo not shown) [Example 31, 2-[(1H-1,3-benzodiazol-2-yl)amino]-1-(piperidin-1-yl)-2-[3-(trifluoromethyl)phenyl]ethan-1-one], the 50% inhibitory concentration (IC50) was under 10 µM.
Consider `COC(=O)[C@@H](C)NC(=O)CC(Nc1nc2ccccc2[nH]1)c1cccc(C(F)(F)F)c1` (stereo partly drawn) [Example 46, Methyl (2R)-2-{3-[(1H-1,3-benzodiazol-2-yl)amino]-3-[3-(trifluoromethyl)phenyl]propanamido}propanoate], for which the IC50 is under 10 µM.
As to `CN1CCN(C(=O)C(Nc2nc3ccccc3[nH]2)c2cccc(C(F)(F)F)c2)CC1` (stereo not shown) [Example 27, 2-[(1H-1,3-benzodiazol-2-yl)amino]-1-(4-methylpiperazin-1-yl)-2-[3-(trifluoromethyl)phenyl]ethan-1-one], the half-maximal inhibitory concentration (IC50) is under 10 µM.
Next, `O=C(CC(Nc1nc2ccccc2[nH]1)c1cccc(C(F)(F)F)c1)NCCOC(F)(F)F` (stereo not shown) [Example 67, 3-[(1H-1,3-benzodiazol-2-yl)amino]-N-[2-(trifluoromethoxy)ethyl]-3-[3-(trifluoromethyl)phenyl]propanamide]: under 10 µM.
Consider `CCN(CCO)C(=O)CC(Nc1nc2ccccc2[nH]1)c1ccc(Cl)c(C)c1` (single isomer, unassigned; (+)) [Example 40b, (+)3-[(1H-1,3-benzodiazol-2-yl)amino]-3-(4-chloro-3-methylphenyl)-N-ethyl-N-(2-hydroxyethyl)propanamide], for which the half-inhibitory concentration (IC50) lay in the range of 10 to 100 µM.
Next, `COCCN(C)C(=O)CC(Nc1nc2ccccc2[nH]1)c1cccc(C(F)(F)F)c1` (stereo not shown) [Example 43, 3-[(1H-1,3-benzodiazol-2-yl)amino]-N-(2-methoxyethyl)-N-methyl-3-[3-(trifluoromethyl)phenyl]propanamide]: under 10 µM; `CN(CC#N)C(=O)CC(Nc1nc2c(CO)cccc2[nH]1)c1cccc(C(F)(F)F)c1` (stereo not shown) [Example 50, N-(cyanomethyl)-3-{[4-(hydroxymethyl)-1H-1,3-benzodiazol-2-yl]amino}-N-methyl-3-[3-(trifluoromethyl)phenyl]propanamide]: 10 to 100 µM; `CN(C)CCN(C)C(=O)C(Nc1nc2ccccc2[nH]1)c1cccc(C(F)(F)F)c1` (stereo not shown) [Example 25, 2-[(1H-1,3-benzodiazol-2-yl)amino]-N-[2-(dimethylamino)ethyl]-N-methyl-2-[3-(trifluoromethyl)phenyl]acetamide]: 10 to 100 µM.
Next, `O=C(CC(Nc1nc2ccccc2[nH]1)c1cccc(C(F)(F)F)c1)NC1COC1` (stereo not shown) [Example 10, 3-[(1H-1,3-benzodiazol-2-yl)amino]-N-(oxetan-3-yl)-3-[3-(trifluoromethyl)phenyl]propanamide]: under 10 µM.
Next, `O=C(CC(Nc1nc2ccccc2[nH]1)c1cccc(C(F)(F)F)c1)NCCOCC(F)(F)F` (stereo not shown) [Example 68, 3-[(1H-1,3-benzodiazol-2-yl)amino]-N-[2-(2,2,2-trifluoroethoxy)ethyl]-3-[3-(trifluoromethyl)phenyl]propanamide]: under 10 µM.
`COCC(C)NC(=O)CC(Nc1nc2ccccc2[nH]1)c1cccc(C(F)(F)F)c1` (stereo not shown) [Example 73, 3-[(1H-1,3-benzodiazol-2-yl)amino]-N-(1-methoxypropan-2-yl)-3-[3-(trifluoromethyl)phenyl]propanamide]: the half-maximal inhibitory concentration (IC50) was under 10 µM.
Regarding `COCCNC(=O)CC(Nc1nc2ccccc2[nH]1)c1cccc(SC)c1` (stereo not shown) [Example 92, 3-[(1H-1,3-benzodiazol-2-yl)amino]-N-(2-methoxyethyl)-3-[3-(methylsulfanyl)phenyl]propanamide], the concentration for half-maximal inhibition (IC50) was under 10 µM.
The value for `O=C(C(Nc1nc2ccccc2[nH]1)c1cccc(C(F)(F)F)c1)N1CCCC1` (stereo not shown) [Example 29, 2-[(1H-1,3-benzodiazol-2-yl)amino]-1-(pyrrolidin-1-yl)-2-[3-(trifluoromethyl)phenyl]ethan-1-one] was under 10 µM; that for `COCC(=O)NCCNC(=O)CC(Nc1nc2ccccc2[nH]1)c1cccc(C(F)(F)F)c1` (stereo not shown) [Example 62, 3-[(1H-1,3-benzodiazol-2-yl)amino]-N-[2-(2-methoxyacetamido)ethyl]-3-[3-(trifluoromethyl)phenyl]propanamide] was 10 to 100 µM; that for `CN(CC(N)=O)C(=O)CC(Nc1nc2ccccc2[nH]1)c1cccc(C(F)(F)F)c1` (stereo not shown) [Example 60, 3-[(1H-1,3-benzodiazol-2-yl)amino]-N-(carbamoylmethyl)-N-methyl-3-[3-(trifluoromethyl)phenyl]propanamide] was 10 to 100 µM.
For the compound `O=C(C(Nc1nc2ccccc2[nH]1)c1cccc(C(F)(F)F)c1)N1CCNCC1` (stereo not shown) [Example 26, 2-[(1H-1,3-benzodiazol-2-yl)amino]-1-(piperazin-1-yl)-2-[3-(trifluoromethyl)phenyl]ethan-1-one], the IC50 was in the range of 10 to 100 µM.
The value for `CCN(CC(=O)OC)C(=O)CC(Nc1nc2ccccc2[nH]1)c1cccc(C(F)(F)F)c1` (stereo not shown) [Example 47, Methyl 2-{3-[(1H-1,3-benzodiazol-2-yl)amino]-N-ethyl-3-[3-(trifluoromethyl)phenyl]propanamido}acetate] was under 10 µM; that for `O=C(CC(Nc1nc2ccccc2[nH]1)c1cccc(C(F)(F)F)c1)N1CCC[C@@H](O)C1` (stereo partly drawn) [Example 13, 3-[(1H-1,3-benzodiazol-2-yl)amino]-1-[(3R)-3-hydroxypiperidin-1-yl]-3-[3-(trifluoromethyl)phenyl]propan-1-one] was 10 to 100 µM.
In the case of `CCc1cc(C(CC(=O)N(CC)CCO)Nc2nc3ccccc3[nH]2)ccc1F` (single isomer, unassigned; (-)) [Example 65a, (−)3-[(1H-1,3-benzodiazol-2-yl)amino]-N-ethyl-3-(3-ethyl-4-fluorophenyl)-N-(2-hydroxyethyl)propanamide], the IC50 is under 10 µM.
The value for `COCCNC(=O)CC(Nc1nc2ccccc2[nH]1)c1cccc(SC2CCC2)c1` (stereo not shown) [Example 87, 3-[(1H-1,3-benzodiazol-2-yl)amino]-3-[3-(cyclobutylsulfanyl)phenyl]-N-(2-methoxyethyl)propanamide] was under 10 µM.
The value for `COC(=O)N1CCN(C(=O)C(Nc2nc3ccccc3[nH]2)c2cccc(C(F)(F)F)c2)CC1` (stereo not shown) [Example 61, Methyl 4-{2-[(1H-1,3-benzodiazol-2-yl)amino]-2-[3-(trifluoromethyl)phenyl]acetyl}piperazine-1-carboxylate] was under 10 µM.
